{"source": "patent US8710032B2", "about": "“Inhibitors of the mevalonate pathway of Streptococcus pneumoniae” (Northwestern University, priority 2006, dated 2014)", "key": {"human mevalonate kinase [1]": {"target": "T1, human mevalonate kinase (Homo sapiens, UniProt Q03426)", "T1 construct": "made in house", "T1 sequence (Q03426 whole entry)": "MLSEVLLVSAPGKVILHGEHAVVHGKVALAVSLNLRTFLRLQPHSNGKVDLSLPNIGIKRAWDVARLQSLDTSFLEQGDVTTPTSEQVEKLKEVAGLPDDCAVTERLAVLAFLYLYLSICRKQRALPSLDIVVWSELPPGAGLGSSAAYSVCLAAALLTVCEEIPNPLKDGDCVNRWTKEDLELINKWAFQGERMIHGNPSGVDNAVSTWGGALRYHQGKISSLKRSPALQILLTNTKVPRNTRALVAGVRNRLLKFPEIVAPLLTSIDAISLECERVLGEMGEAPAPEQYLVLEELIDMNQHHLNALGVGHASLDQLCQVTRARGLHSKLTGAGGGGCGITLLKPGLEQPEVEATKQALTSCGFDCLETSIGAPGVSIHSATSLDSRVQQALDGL", "experiment": "DPM inhibition of human mevalonate kinase (initial rate)", "assay_type": "biochemical", "settings": "at DPM concentrations that essentially completely inhibit the streptococcal system; [substrates]~Km", "procedure": "(§1) The findings that mevalonate-pathway S. pneumoniae mutants cannot survive in mouse lung or serum validated this pathway as an antibiotic target in animal models. Acting on the hypothesis that the primary sequence differences of the mammalian and streptococcal MKs might produce different DPM-inhibition characteristics, the human enzyme was cloned, expressed, purified and tested for DPM inhibition. The effect of DPM on the initial rate of the human and streptococcal enzymes was assessed using samples with matched catalytic poise ([substrates]˜Km, equivalent Vm)."}, "human mevalonate kinase [2]": {"target": "T1, human mevalonate kinase", "settings": "background; cited from earlier work"}, "mevalonate kinase (MK) [3]": {"target": "T2, mevalonate kinase (MK) (Streptococcus pneumoniae, UniProt A0A0H2UNK6)", "experiment": "Initial-rate inhibition of S. pneumoniae mevalonate kinase", "assay_type": "biochemical", "procedure": "Regulation of the isoprenoid biosynthetic pathway in S. pneumoniae was discovered during an attempt to enzymatically synthesize DPM from ATP and mevalonate using MK and PMK. Individually, either enzyme is capable of quantitative conversion of substrate to product. However, when the enzymes are added simultaneously, the forward reaction decelerates rapidly and little product is formed. […] Thus, this nearly pure noncompetitive inhibitor binds at a site that is physically distinct from the substrate binding sites—an allosteric site. […] The stoichiometry was confirmed by NMR titration. […] Down-regulation of this pathway is quite specific for DPM.\nas §1\n(§2) Several compounds were designed to inhibit DPM-DC and control cholesterol biosynthesis. In one such compound, each of the C6-methyl protons of mevalonate are replaced with fluorine (6,6,6-trifluoromevalonate, F3-mev). Given DPM inhibition of MK, and excellent inhibition of rat liver DPM-DC by F3-DPM (Ki=0.5 μM) it was hoped that F3-DPM might inhibit both MK and DPM-DC from S. pneumoniae, and, if so, be used as a bacteriostatic or bacteriocidal agent. […] Encouraged, F3-DPM was tested as an antibiotic against S. pneumoniae. To avoid the possible obstacles of phosphatase degradation of DPM and transporting a highly charged anion across the cell wall, a prodrug strategy that relies on conversion of F3-mev to F3-DPM in the cytosol was used. F3-mev conversion to F3-DPM and consequent inhibition of DPM-DC occurs in rat liver extracts. The linear and lactone forms of statins, which target an early step in the isoprenoid pathway, show widely different potencies; consequently, both forms of F3-mev were tested as inhibitors. Serial dilutions of F3-mev were added to Meuller-Hinton Broth, a horse-blood based medium, containing ˜7.5×10^7 cells of either an infectious (ATCC 49619) or non-infectious (R6) strain of S. pneumoniae. The cultures containing F3-mev were incubated for 24 hours at 35° C. and plated to assess viability. The linear form of F3-mev had little effect; confluent growth was observed on all plates; in contrast, the lactone is clearly a bacteriocide—less than 0.0001% of either strain survived at 100-200 μg/ml of the lactone. […]"}, "DPM-DC [4]": {"target": "T3, DPM-DC (Streptococcus pneumoniae, UniProt A0A0H2UNP0)", "T3 sequence (A0A0H2UNP0 1-317)": "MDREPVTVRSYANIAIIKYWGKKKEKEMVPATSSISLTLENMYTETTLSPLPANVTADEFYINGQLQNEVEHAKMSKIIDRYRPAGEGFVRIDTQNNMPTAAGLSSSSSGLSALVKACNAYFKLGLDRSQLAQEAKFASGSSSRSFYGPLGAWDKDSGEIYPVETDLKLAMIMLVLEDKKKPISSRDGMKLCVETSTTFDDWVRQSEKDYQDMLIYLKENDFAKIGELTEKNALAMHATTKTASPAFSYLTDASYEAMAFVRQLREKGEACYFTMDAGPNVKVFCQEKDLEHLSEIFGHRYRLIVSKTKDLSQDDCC", "experiment": "DPM binding to DPM-DC by intrinsic fluorescence", "procedure": "FIG. 5. DPM Binding to DPM-DC. Conditions: DPM-DC (0.10 μM); MgCl2 (1.0 mM); β-Me (2.0 mM); KCl (50 mM); Glycerol (0.5% v/v); Hepes (50 mM, pH 8.0); T=25 (±2)° C.\nThis spectroscopic handle can be used to determine the affinities of the inhibitors described in this proposal and to explore the mechanism of DPM-DC. […] As a tool to study mechanism, the DPM-induced fluorescence changes can monitor, by stopped-flow, the progress of the binding reactions. The concentration dependencies of such measurements yield microscopic rate constants, which, in turn, provide ground and transition-state energetics for a particular step in the reaction coordinate. In favorable cases, fluorescence changes occur subsequent to binding as consequence of other structural changes that occur during the catalytic cycle—such is the case with DPM-DC. These changes can be assigned to bond-cleavage steps using by monitoring chemistry in the presteady-state by quenched-flow."}, "mevalonate kinase (MK) [5]": {"target": "T2, mevalonate kinase (MK)", "experiment": "Equilibrium binding of DPM to MK"}, "mevalonate kinase (MK) [6]": {"target": "T2, mevalonate kinase (MK)", "settings": "read-out: Ki (binding to the allosteric site of mevalonate kinase); S. pneumoniae MK; background, Andreassi et al. 2004; cited from earlier work"}, "[7]": {"target": "T4, mammalian DPM decarboxylase (Homo sapiens, UniProt P53602)", "T4 sequence (P53602 1-400)": "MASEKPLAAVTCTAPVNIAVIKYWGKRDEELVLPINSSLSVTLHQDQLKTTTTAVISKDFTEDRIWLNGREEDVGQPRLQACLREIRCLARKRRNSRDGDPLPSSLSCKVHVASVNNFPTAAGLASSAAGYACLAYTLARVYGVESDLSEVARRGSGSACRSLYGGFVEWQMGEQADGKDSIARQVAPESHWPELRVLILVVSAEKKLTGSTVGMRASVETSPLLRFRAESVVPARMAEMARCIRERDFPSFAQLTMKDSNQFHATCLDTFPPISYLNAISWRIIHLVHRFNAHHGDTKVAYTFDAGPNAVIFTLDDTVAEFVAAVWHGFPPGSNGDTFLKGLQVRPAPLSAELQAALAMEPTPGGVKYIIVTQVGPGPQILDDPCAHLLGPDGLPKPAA", "settings": "cited from earlier work; for Km: substrate of mammalian DPM decarboxylase"}, "DPM-DC [8]": {"target": "DPM-DC (Streptococcus pneumoniae, UniProt Q9FD53)", "sequence (Q9FD53 entry or part of it)": "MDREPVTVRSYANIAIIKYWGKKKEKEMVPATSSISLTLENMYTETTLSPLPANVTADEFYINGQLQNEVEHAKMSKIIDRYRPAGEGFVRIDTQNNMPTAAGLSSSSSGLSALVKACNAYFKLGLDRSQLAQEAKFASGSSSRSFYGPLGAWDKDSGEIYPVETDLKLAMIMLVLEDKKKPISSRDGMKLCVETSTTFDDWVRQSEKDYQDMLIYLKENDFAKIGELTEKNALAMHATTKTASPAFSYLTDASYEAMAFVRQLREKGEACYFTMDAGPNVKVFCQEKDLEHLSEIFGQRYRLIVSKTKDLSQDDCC", "experiment": "Inhibition of S. pneumoniae DPM-DC", "assay_type": "biochemical", "settings": "DPM-DC from S. pneumoniae"}, "rat liver DPM-DC": {"target": "T5, rat liver DPM-DC (Rattus norvegicus, UniProt Q62967)", "T5 construct": "host or cells: rat liver", "T5 sequence (Q62967 1-401)": "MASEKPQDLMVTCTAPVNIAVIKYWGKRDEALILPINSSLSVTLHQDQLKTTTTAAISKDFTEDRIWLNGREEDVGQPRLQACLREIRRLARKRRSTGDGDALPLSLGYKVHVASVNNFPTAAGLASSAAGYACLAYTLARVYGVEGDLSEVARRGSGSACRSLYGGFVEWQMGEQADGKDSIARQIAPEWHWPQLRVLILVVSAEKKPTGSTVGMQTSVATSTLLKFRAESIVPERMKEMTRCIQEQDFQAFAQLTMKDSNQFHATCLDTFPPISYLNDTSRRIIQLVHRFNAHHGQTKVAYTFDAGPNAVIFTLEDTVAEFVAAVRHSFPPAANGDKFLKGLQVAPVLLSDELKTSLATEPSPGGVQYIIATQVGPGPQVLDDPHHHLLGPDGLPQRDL", "settings": "cited from earlier work"}, "[9]": {"tested_on": "S. pneumoniae (ATCC 49619, R6)", "experiment": "Antibiotic test: broth culture, plated to assess viability", "assay_type": "cell-based, Streptococcus pneumoniae", "settings": "serial dilutions; 24 hours at 35° C.; ATCC 49619 or R6", "procedure": "as §2, with “viability.” for “viability. The linear form of F3-mev had little effect; confluent growth was observed on all plates; in contrast, the lactone is clearly a bacteriocide—less than 0.0001% of either strain survived at 100-200 μg/ml of the lactone.”"}, "mevalonate kinase": {"target": "T6, mevalonate kinase (Streptococcus pneumoniae, UniProt A0A0H2UNK6)", "T6 sequence (A0A0H2UNK6 1-292)": "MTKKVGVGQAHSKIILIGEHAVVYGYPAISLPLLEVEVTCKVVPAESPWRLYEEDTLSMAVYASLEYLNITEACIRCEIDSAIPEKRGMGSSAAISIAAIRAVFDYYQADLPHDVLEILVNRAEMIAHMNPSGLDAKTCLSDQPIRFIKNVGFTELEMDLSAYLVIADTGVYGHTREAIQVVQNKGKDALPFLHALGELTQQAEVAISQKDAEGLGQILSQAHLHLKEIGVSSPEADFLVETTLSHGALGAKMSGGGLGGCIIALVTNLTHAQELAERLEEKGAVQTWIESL", "experiment": "Initial substrate results of analogues with mevalonate kinase (FIG. 8)", "assay_type": "biochemical", "settings": "[ATP]=0.85 mM", "procedure": "FIG. 8. Initial substrate results [analogue] ranged from 2.0-2.5 mM, except #6 (4.2 mM) and #8 (6.2 mM).\nA series of compounds related to compounds 4, 5, 23, and 25 can be synthesized as potential competitive or noncompetitive reversible inhibitors of MK and DPM-DC (See, e.g., FIGS. 6-7). The representative synthesis shown (Scheme 4a) is a modification of that shown in Scheme 4, and R is limited only by availability of the corresponding reagent and synthetic technique, as would be understood by those skilled in the art made aware of this invention (e.g., alkyl, vinyl, acetylenyl, aryl, heteroaryl, etc., via Grignard reaction with the corresponding magnesium bromide or chloride)."}, "MK": {"tested_on": "MK", "settings": "producing 6-fluoroDPM; cited from earlier work"}, "[10]": {"tested_on": "incorporation of mevalonate into nonsaponifiable lipids", "settings": "rat liver extracts; relative to F3-mev; cited from earlier work"}, "PMK": {"tested_on": "PMK", "settings": "producing 6-fluoroDPM; cited from earlier work"}, "DPM-DC [11]": {"target": "T3, DPM-DC", "settings": "cited from earlier work"}}, "note": "Entries after “also recorded” stand apart in the source; their conditions may differ. Like-named read-outs stand apart in the source and are kept apart here.", "data": [{"smiles": "C[C@@](O)(CCOP(=O)(O)OP(=O)(O)O)CC(=O)O", "note": "[DPM, Diphosphomevalonate]", "values": [{"measurement": "effect of DPM on human MK", "setting": "human mevalonate kinase [1]", "result": "virtually unaffected; also recorded: insensitive"}, {"measurement": "effect of DPM on human mevalonate kinase isozyme", "setting": "human mevalonate kinase [2]", "result": "not affected"}, {"measurement": "Ki", "setting": "mevalonate kinase (MK) [3]", "result": 500, "unit": "nM"}, {"measurement": "turnover reduced to", "setting": "mevalonate kinase (MK) [3]; DPM bound to MK", "result": "less than 0.5%"}, {"measurement": "inhibition mechanism (initial-rate study)", "setting": "mevalonate kinase (MK) [3]; vs substrates", "result": "noncompetitively"}, {"measurement": "Kd", "setting": "DPM-DC [4]", "result": 540, "unit": "nM"}, {"measurement": "change in the intrinsic fluorescence of DPM-DC", "setting": "DPM-DC [4]; on binding of DPM", "result": 1.5, "unit": "fold"}, {"measurement": "Kd", "setting": "mevalonate kinase (MK) [5]; Kd DPM, quoted for the NMR titration of MK", "result": 500, "unit": "nM"}, {"measurement": "Kd", "setting": "mevalonate kinase (MK) [5]; affinity of DPM for apo (E) form of the enzyme, apo (E)", "result": 630, "unit": "nM"}, {"measurement": "Kd", "setting": "mevalonate kinase (MK) [5]; affinity of DPM for ternary (E.AMPPNP.mev) form of the enzyme, ternary (E.AMPPNP.mev)", "result": 530, "unit": "nM"}, {"measurement": "binding stoichiometry", "setting": "mevalonate kinase (MK) [5]; enzyme is a dimer", "result": 0.5, "unit": "DPM/active site"}, {"measurement": "Ki", "setting": "mevalonate kinase (MK) [6]", "result": 400, "unit": "nM"}, {"measurement": "Km", "setting": "[7]", "result": 15, "unit": "µM"}]}, {"smiles": "O=C(O)CC(O)(CCOP(=O)(O)OP(=O)(O)O)C(F)(F)F", "note": "(stereo not drawn) [F3-DPM]", "values": [{"measurement": "Ki", "setting": "DPM-DC [8]", "result": 50, "unit": "nM"}, {"measurement": "Ki", "setting": "mevalonate kinase (MK) [3]; MK from S. pneumoniae, read-out: Ki (MK)", "result": 570, "unit": "nM"}, {"measurement": "Ki", "setting": "rat liver DPM-DC; rat liver", "result": 500, "unit": "nM"}]}, {"smiles": "CCC(O)(CCOP(=O)(O)OP(=O)(O)O)CC(=O)O", "note": "(stereo not drawn) [compound 14]", "values": [{"measurement": "Km", "setting": "[7]; read-out: Km", "result": 33, "unit": "µM"}, {"measurement": "kcat relative to DPM", "setting": "[7]; that of DPM", "result": 32, "unit": "%"}]}, {"smiles": "O=C(O)CC(O)(CCO)C(F)(F)F", "note": "(stereo not drawn) [linear form of F3-mev, 6,6,6-trifluoromevalonate]", "values": [{"measurement": "effect on viability (growth on plates)", "setting": "[9]", "result": "little effect"}]}, {"smiles": "CC(O)(CCO)CC(=O)O", "note": "(stereo not drawn) [mevalonate]", "values": [{"measurement": "kcat", "setting": "mevalonate kinase", "result": 227, "unit": "s^1"}]}, {"smiles": "O=C(O)CC(O)(CF)CCO", "note": "(stereo not drawn) [mono-fluoro derivative, 6-Fluoromevalonic acid]", "values": [{"measurement": "substrate for MK (in words)", "setting": "MK", "result": "substrate"}, {"measurement": "more effective than F3-mev in inhibiting incorporation of mevalonate into nonsaponifiable lipids", "setting": "[10]", "result": 50, "unit": "times"}, {"measurement": "substrate for PMK (in words)", "setting": "PMK", "result": "substrate"}, {"measurement": "decrease in turnover", "setting": "DPM-DC [11]; mono-fluoro substitution at C6", "result": 2500, "unit": "fold"}, {"measurement": "turnover", "setting": "DPM-DC [11]; substrate of DPM-DC", "result": 0.19, "unit": "min⁻¹"}, {"measurement": "turnover relative to the native compound", "setting": "DPM-DC [11]; vs DPM", "result": 0.04, "unit": "%"}, {"measurement": "better inhibitor of DPM-DC (relative to F3 analogue)", "setting": "rat liver DPM-DC; rat liver extracts", "result": 50, "unit": "fold"}]}]}
